Molecules are shown by their SMILES.

The subject of data set [1] is Leishmania donovani. Put plainly: Antileishmanial activity against Leishmania donovani promastigotes assessed as parasitic growth inhibition at 50 uM incubated for 3 days by resazurin dye based assay relative to control. The class given is functional. The conditions noted are these: 72 h, time 3 day. A general note: Resazurin is reduced to fluorescent resorufin, in cell work by metabolically active cells.

Data set [2] concerns Leishmania donovani. Put plainly: Antileishmanial activity against Leishmania donovani promastigotes assessed as parasitic growth inhibition at 25 uM incubated for 3 days by resazurin dye based assay relative to control. The class given is functional. The conditions noted are these: 72 h, time 3 day.
For data set [3], the system named is Leishmania donovani. Put plainly: Antileishmanial activity against Leishmania donovani promastigotes assessed as parasitic growth inhibition incubated for 3 days by resazurin dye based assay. The following applies: 72 h. It counts as functional, organism-based.
In data set [4] the test system is Leishmania donovani. Briefly: Antileishmanial activity against Leishmania donovani amastigotes infected in human THP-1 cells assessed as inhibition of intracellular parasite number incubated for 72 hrs by DAPI staining based assay. The following applies: THP-1, 72 h. The class given is functional, organism-based.
For data set [5], the system named is Leishmania donovani. Put plainly: Antileishmanial activity against Leishmania donovani amastigotes infected in human THP-1 cells assessed as inhibition of parasite infection incubated for 72 hrs by DAPI staining based assay. The class given is functional, organism-based. The conditions noted are these: THP-1, 72 h.
Data set [6] in a line: Cytotoxicity against human THP-1 cells. It counts as toxicity, cell-based.

As for `COc1cccc(/C=C2\Oc3cc(OCCCN4CCCC4)ccc3C2=O)c1OC`, in the data set with Leishmania donovani [1], the inhibition at 50 µM was 116%. For the same compound, in the data set on Leishmania donovani [2], the inhibition at 25 µM was 109%. The figures for the IC50 in the data set with Leishmania donovani [3], in the data set on Leishmania donovani [4] and in the data set with Leishmania donovani [5] were 5.4 µM, > 100 µM and 26.4 µM, respectively. This compound also gave a 50% cytotoxic concentration (CC50) in data set [6] of 33.5 µM.

For `CCN(CC)CCCOc1ccc2c(c1)O/C(=C\c1cccc(OC)c1)C2=O`, the inhibition at 50 µM in the data set on Leishmania donovani [1] came to 118%. For the same compound, the inhibition at 25 µM with Leishmania donovani [2] worked out at 114%. In addition, the 50% inhibitory concentration (IC50) in the data set with Leishmania donovani [3] stood at 4.6 µM; in the data set with Leishmania donovani [4] it was 14.5 µM; with Leishmania donovani [5] it was 17.1 µM. Also, the half-maximal cytotoxic concentration (CC50) in data set [6] worked out at 19.3 µM.

On to `COc1ccc(OC)c(/C=C2\Oc3cc(OCCN4CCCC4)ccc3C2=O)c1`, for which the inhibition at 50 µM in the data set on Leishmania donovani [1] stood at 116%. In addition, the inhibition at 25 µM in the data set on Leishmania donovani [2] came out at 115%. Also, the IC50 with Leishmania donovani [3] was found to be 4.1 µM; in the data set on Leishmania donovani [4], 4.6 µM; in the data set on Leishmania donovani [5], 11.1 µM. Besides, the cytotoxic concentration (CC50) in data set [6] was determined as 10.5 µM.

With `COc1ccc(/C=C2\Oc3cc(OCCN4CCCCC4)ccc3C2=O)cc1`, the inhibition at 50 µM with Leishmania donovani [1] is 99%. The inhibition at 25 µM in the data set on Leishmania donovani [2] was found to be 104%. For the same compound, the half-maximal inhibitory concentration (IC50) with Leishmania donovani [3] was determined as 4.3 µM; in the data set with Leishmania donovani [4] it was 31.5 µM; with Leishmania donovani [5], 34.8 µM. The compound further returned a CC50 in data set [6] of 40.7 µM.

With `COc1ccc(/C=C2\Oc3cc(OCCCCCN4CCCCC4)ccc3C2=O)cc1OC`, the inhibition at 50 µM in the data set with Leishmania donovani [1] amounted to 124%. Further, the inhibition at 25 µM in the data set with Leishmania donovani [2] was 115%. The IC50 amounted to 2.9 µM in the data set on Leishmania donovani [3], 17.1 µM in the data set with Leishmania donovani [4] and 24.1 µM in the data set with Leishmania donovani [5]. In data set [6], the CC50 amounted to 26.1 µM.

Turning to `COc1cc(/C=C2\Oc3cc(OCCN4CCCC4)ccc3C2=O)cc(OC)c1OC`, in the data set on Leishmania donovani [1], the inhibition at 50 µM worked out at 133%. The inhibition at 25 µM in the data set on Leishmania donovani [2] turned out to be 126%. Further, the IC50 was 3.1 µM in the data set on Leishmania donovani [3], 15.7 µM with Leishmania donovani [4] and 27.3 µM in the data set with Leishmania donovani [5]. The compound further had a CC50 in data set [6] of 26.2 µM.

As to `CCN(CC)CCOc1ccc2c(c1)O/C(=C\c1ccccc1OC)C2=O`, the inhibition at 50 µM with Leishmania donovani [1] came out at 115%. Besides, in the data set on Leishmania donovani [2], the inhibition at 25 µM turned out to be 110%. Further, the IC50 with Leishmania donovani [3] was determined as 5.3 µM; in the data set with Leishmania donovani [4], 9.9 µM; in the data set with Leishmania donovani [5], 13.3 µM. In data set [6], this compound returned a CC50 of 17.2 µM.

Consider `COc1cccc(/C=C2\Oc3cc(OCCN4CCCC4)ccc3C2=O)c1`, for which the inhibition at 50 µM in the data set with Leishmania donovani [1] was 117%. For the same compound, the inhibition at 25 µM in the data set with Leishmania donovani [2] was 112%. The results for the IC50 in the data set with Leishmania donovani [3], with Leishmania donovani [4] and in the data set on Leishmania donovani [5] were 4.8 µM, 22.9 µM and 26.7 µM, respectively. Moreover, the CC50 in data set [6] came out at 28.9 µM.

`COc1cccc(/C=C2\Oc3cc(OCCN4CCOCC4)ccc3C2=O)c1`: the inhibition at 50 µM in the data set with Leishmania donovani [1] was determined as 105%. The inhibition at 25 µM in the data set with Leishmania donovani [2] came out at 80%. Also, the IC50 in the data set with Leishmania donovani [3] amounted to 27 µM.

Consider `COc1ccc(OC)c(/C=C2\Oc3cc(OCCCN4CCCC4)ccc3C2=O)c1`, for which the inhibition at 50 µM with Leishmania donovani [1] was found to be 103%. Besides, the inhibition at 25 µM in the data set with Leishmania donovani [2] was determined as 103%. For the same compound, the concentration for half-maximal inhibition (IC50) stood at 3.7 µM with Leishmania donovani [3], 4.4 µM in the data set with Leishmania donovani [4] and 6.3 µM in the data set on Leishmania donovani [5]. Moreover, in data set [6], half-maximal cytotoxicity (CC50) was put at 6.6 µM.

As to `COc1ccc2c(c1)O/C(=C\c1ccc(O)c(O)c1)C2=O`, in the data set with Leishmania donovani [1], the inhibition at 50 µM amounted to 108%. For the same compound, in the data set on Leishmania donovani [2], the inhibition at 25 µM amounted to 105%. In addition, the IC50 with Leishmania donovani [3] was 26.4 µM.

Take `CCN(CC)CCOc1ccc2c(c1)O/C(=C\c1cccc(OC)c1)C2=O`: the inhibition at 50 µM with Leishmania donovani [1] stood at 121%. In addition, the inhibition at 25 µM with Leishmania donovani [2] amounted to 115%. In addition, the IC50 in the data set with Leishmania donovani [3] is 8.6 µM; with Leishmania donovani [4], > 100 µM; in the data set on Leishmania donovani [5], 27.4 µM. Also, in data set [6], the 50% cytotoxic concentration (CC50) turned out to be 39 µM.

For `COc1cc(/C=C2\Oc3cc(OCCCN4CCCC4)ccc3C2=O)cc(OC)c1`, the inhibition at 50 µM in the data set on Leishmania donovani [1] came to 102%. For the same compound, in the data set on Leishmania donovani [2], the inhibition at 25 µM was 104%. For the same compound, the IC50 worked out at 2.8 µM in the data set on Leishmania donovani [3], 14.3 µM in the data set with Leishmania donovani [4] and 14 µM in the data set on Leishmania donovani [5]. Moreover, in data set [6], it took 15.3 µM to reach half-maximal cytotoxicity (CC50).

As for `COc1ccccc1/C=C1\Oc2cc(OCCN3CCCC3)ccc2C1=O`, the inhibition at 50 µM with Leishmania donovani [1] is 71%. Moreover, the inhibition at 25 µM in the data set with Leishmania donovani [2] amounted to 69%. In addition, the IC50 in the data set on Leishmania donovani [3] is > 100 µM.

Turning to `COc1ccc(/C=C2\Oc3cc(OCCN4CCCCC4)ccc3C2=O)cc1OC`, the inhibition at 50 µM in the data set on Leishmania donovani [1] was found to be 127%. In the data set with Leishmania donovani [2], the inhibition at 25 µM stood at 122%. The IC50 is 2.5 µM in the data set with Leishmania donovani [3], 25.5 µM with Leishmania donovani [4] and 29.7 µM in the data set on Leishmania donovani [5]. For the same compound, the cytotoxic concentration (CC50) in data set [6] was determined as 27.4 µM.

As for `COc1ccccc1/C=C1\Oc2cc(OCCCN3CCCC3)ccc2C1=O`, the inhibition at 50 µM in the data set with Leishmania donovani [1] is 110%. For the same compound, the inhibition at 25 µM in the data set with Leishmania donovani [2] is 107%. Moreover, the results for the IC50 in the data set with Leishmania donovani [3], with Leishmania donovani [4] and in the data set on Leishmania donovani [5] were 4.1 µM, 8.2 µM and 21.2 µM, respectively. This compound also returned a CC50 in data set [6] of 14.3 µM.

`CCCCCCCCCCCCCCCCCCOCC(COP(=O)([O-])OCC[N+](C)(C)C)OC` (stereo unspecified) [EDELFOSINE]: the inhibition at 50 µM with Leishmania donovani [1] was 108%. For the same compound, the inhibition at 25 µM in the data set on Leishmania donovani [2] was 108%. In addition, the half-inhibitory concentration (IC50) with Leishmania donovani [3] amounted to 3.9 µM; in the data set on Leishmania donovani [4], 2 µM; in the data set on Leishmania donovani [5], 7.7 µM. In data set [6], this compound showed a CC50 of 12.9 µM.

As for `COc1ccc(/C=C2\Oc3cc(OCCCN4CCCC4)ccc3C2=O)cc1OC`, the inhibition at 50 µM in the data set with Leishmania donovani [1] is 124%. Also, in the data set on Leishmania donovani [2], the inhibition at 25 µM came to 120%. Further, the IC50 in the data set with Leishmania donovani [3] was found to be 3.1 µM; with Leishmania donovani [4], 16.9 µM; with Leishmania donovani [5] it was 26.2 µM. Half-maximal cytotoxicity in data set [6] (CC50) was put at 26.9 µM.

For `COc1ccc(/C=C2\Oc3cc(OCCN4CCCC4)ccc3C2=O)cc1`, the inhibition at 50 µM in the data set on Leishmania donovani [1] is 115%. Further, the inhibition at 25 µM in the data set on Leishmania donovani [2] worked out at 108%. For the same compound, the results for the IC50 in the data set with Leishmania donovani [3], in the data set with Leishmania donovani [4] and with Leishmania donovani [5] were 4.8 µM, 15.8 µM and 22.6 µM, respectively. Besides, the 50% cytotoxic concentration (CC50) in data set [6] was determined as 21.5 µM.

In the case of `COc1ccc(/C=C2\Oc3cc(OCCCN4CCCCC4)ccc3C2=O)cc1OC`, the inhibition at 50 µM with Leishmania donovani [1] amounted to 125%. The inhibition at 25 µM with Leishmania donovani [2] came out at 119%. In addition, the IC50 came out at 2.6 µM in the data set with Leishmania donovani [3], 22.3 µM with Leishmania donovani [4] and 29.5 µM with Leishmania donovani [5]. For the same compound, it took 28.4 µM to reach half-maximal cytotoxicity in data set [6] (CC50).

By inhibition is commonly meant the drop in the measured response relative to a control, in per cent. One may read the IC50 as the concentration that gives 50% inhibition. By CC50 is commonly meant the concentration giving 50% cytotoxicity. A higher CC50 goes with lower toxicity to the cells.

Source of the values: ChEMBL document CHEMBL5346931, “Design, synthesis, and repurposing of O6-aminoalkyl-sulfuretin analogs towards discovery of potential lead compounds as antileishmanial agents” (Eur J Med Chem, 2023).
